Data set [1] concerns vomiting due to antineoplastic therapy. The data set can be described thus: Previous antiemetic treatment of patient 1 with Metoclopromide. The settings on record: patient 1, 0.3 mg/kg p.o. or i.v. The format is in vivo, human.
A short description of data set [2]: Stability towards chemicals and oxidation, compared with delta-9-THC. It is filed as physicochemical. The settings on record: compared with delta-9 isomer.
A short description of data set [3]: Acute oral toxicity, single doses, observed for 7 days. The format is in vivo. The following applies: rat, in vivo; Fischer rats, male, single oral dose, observed 7 days; read-out: LD50, males.
A further data set concerns Fischer rats. The description is as above. The format is in vivo. The settings on record: extremely high oral doses, delta-8- vs delta-9-THC.
Data set [4] has as its system vomiting due to antineoplastic therapy in children with various blood cancers. Nature of the data set: Antiemetic trial of delta-8-THC in 8 children receiving antineoplastic therapy (prevention of vomiting, side effects). The format is in vivo, human (children). How it is done: In a trial, with 8 children of 3 to 13 years age, with various blood cancers, treated with a variety of antineoplastic drugs, 18 mg/m^2, in edible oil, p.o. of delta-8-THC was given two hours before the antineoplastic drug, and repeated every 6 hours of 24 hours. […] So far these children have received Δ^8 -THC nearly 500 times (see Table).
Eight children with various blood cancers were administered delta-8-THC at a dose of 18 mg/m^2 p.o. two hours before the start of the anticancer treatment. The drug was dissolved in corn or olive oil (6 mg/ml). The same dose was repeated every 6 hrs for 24 hrs. Whenever additional cycles of antineoplastic therapy were required, delta-8-THC was administered following the same time procedure described above. Children received delta-8-THC only during days when emetogenic drugs were administered.
Established anticancer drug protocols were followed with all patients.
(§1) A study on vomiting due to antineoplastic therapy was carried out with 8 patients. Chemotherapy protocols of the types indicated in the Table almost invariable cause intense vomiting, which starts about 2 hrs after the initiation of chemotherapy and gradually ends over a 24 hr period. In preliminary trials we tried to end the antiemetic therapy after the first or second dose of the cannabinoid, i.e. after 6 or 12 hrs. […] In one case (patient) delta-8-THC therapy initially was refused. The patient experienced debilitating vomiting for 24 hrs after the antineoplastic treatment. During the second treatment cycle (which took place after 8 days), at the patient's family request, delta-8-THC treatment was initiated.
Our antiemetic protocol for cancer patients, to which we strictly adhere, consists of one dose of delta-8-THC (18 mg/m^2) 2 hours before chemotherapy, followed by the same dose every 6 hours for a total of 4 doses per day.

Data set [5] has as its system vomiting and nausea in cancer therapy. The data set can be described thus: Comparison of delta-8-THC with delta-9-THC for antiemetic use (effectiveness, side effects). The format is in vivo, human. The settings on record: compared with delta-9-THC.
Data set [6] deals with vomiting due to antineoplastic therapy. The data set can be described thus: Preliminary trials ending the antiemetic therapy after first or second dose. The format is in vivo, human. The settings on record: therapy ended after first or second dose, i.e. after 6 or 12 hrs. The method, then: as §1
The next data set has as its system dogs. The data set can be described thus: Acute oral toxicity, single doses. The following applies: single oral doses up to 9000 mg/kg. The format is in vivo. How it is done:
(§2) LD50 could not be determined in either rhesus monkeys or dogs as single oral doses of up to 9000 mg/kg of either delta-8- or delta-9-THC in dogs or monkeys were non lethal.

Another data set deals with rhesus monkeys. Nature of the data set: Acute oral toxicity, single doses. The format is in vivo. The settings on record: single oral doses up to 9000 mg/kg. The method, then:
as §2

Data set [7] is described as follows: Acute oral toxicity, single doses. It is filed as in vivo. The settings on record: in vivo, single oral dose, read-out: LD50 (could not be determined; single oral doses up to this dose non lethal). The method, then: as §2
The subject of data set [8] is vomiting and nausea in chemotherapy patients. The settings on record: cited from earlier work.
[9] abbreviates: chemotherapy of cancer, treated patients.

“Also recorded” adds a separate entry of the source. Read-outs that look alike come from different tables or passages of the source. Some results are limits rather than exact numbers.

The LD50 is the dose expected to kill half of the subjects tested.

As to `CCN(CC)CCNC(=O)c1cc(Cl)c(N)cc1OC` [Metoclopromide], the Prevention of vomiting result in [1] is recorded as “failed to”.

Regarding `CCCCCc1cc(O)c2c(c1)OC(C)(C)[C@@H]1CC=C(C)C[C@@H]21` [delta-8-THC], the Proneness to oxidation entry in data set [2] was “less prone to oxidation”. Moreover, in [2], the “Stability towards various chemicals” value was “considerably more stable”. For the same compound, the median lethal dose (LD50) at 168 h in [3] was 1980 mg/kg. The Histopathological changes entry with Fischer rats is on record as “essentially the same”. In addition, the Prevention of vomiting result in [4] (8 children, 18 mg/m^2 p.o. in edible oil 2 h before antineoplastic drug, repeated every 6 h for 24 h) was “completely prevented; also recorded: no emesis was noted; also recorded: prevention of vomiting was complete”. Further, the “Effect of antiemetic treatments: side effects per patient” value in data set [4] (Table, individual child, 18 mg/m^2) was “no side effects; also recorded: slight irritability; also recorded: euphoria”. In addition, the “Anxiety or hallucinogenic effects” value in data set [4] (children, 18 mg/m^2 p.o.) is listed as “No anxiety or hallucinogenic effects were noted”. Moreover, in [4] (children, 18 mg/m^2 p.o., every 6 h for 24 h), the “Side effects (overall)” value was “negligible side effects; also recorded: minor: some irritability as slight euphoria; also recorded: without the occurrence of major side effects”. Further, the “Vomiting in patient, second treatment cycle” value in data set [4] (delta-8-THC initiated at second cycle after refusal in first cycle, 18 mg/m^2 p.o.) is on record as “No vomiting occurred”. For the same compound, in [5], the “Effectiveness for the intended (antiemetic) use” value is “at least as effective”. Further, in data set [5] (especially in pediatric medicine), the Side-effects result is listed as “considerably reduced side-effects”. In [6], the “Vomiting after ending antiemetic therapy early” value is “Vomiting started in most cases”. Besides, the Histopathological alterations entry with dogs and in the data set on rhesus monkeys was “did not occur” throughout. Further, the median lethal dose (LD50) in data set [7] (dog, dogs) is more than 9000 mg/kg; in [7] (rhesus monkey, rhesus monkeys), more than 9000 mg/kg.

In the case of `CCCCCc1cc(O)c2c(c1)OC(C)(C)[C@@H]1CCC(C)=C[C@@H]21` [delta-9-THC, delta-9-tetrahydro-cannabinol, reference compound], in [3], the LD50 at 168 h was 1910 mg/kg. Besides, the Histopathological changes result in the data set on Fischer rats is “essentially the same”. Further, the “Effect in the remaining patients” value in [8] (chemotherapy of cancer, the rest of treated patients) is recorded as “little or no effect”. In [8] (setting [9]), the “Patients in whom vomiting and nausea is prevented” value is 20 to 30 per cent. For the same compound, the “Patients in whom vomiting and nausea symptoms are reduced” value in data set [8] (setting [9]) was 40 to 50 per cent. The Pronounced side effects result in data set [8] (treated patients, pronounced with elderly patients) was “drowsiness, dizziness and in some cases--anxiety”. Moreover, in data set [8] (younger patients), the “Side effects in younger patients” value is listed as “mainly mood changes”. Also, the Histopathological alterations result in the data set on dogs and with rhesus monkeys was “did not occur” in each case. Also, the LD50 is more than 9000 mg/kg in data set [7] (dog, dogs) and more than 9000 mg/kg in data set [7] (rhesus monkey, rhesus monkeys).

The values above are taken from patent US5605928A, “Antiemetic compositions” (Yissum Research Development Company of The Hebrew …, priority 1992, dated 1997).
